Tests used:
[1] = target: wild-type human cardiac sodium channel, hNav1.5 (late INa) (Homo sapiens, UniProt Q14524); assay: Late INa screening assay (QPatch whole cell patch clamp); type: cell-based; details: percent block of late INa, compound at 1 μM, 10 μM Tefluthrin, HEK293 hNav1.5; read-out: Late INa 1 μM
In short: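 Compounds tested at 1 μM final in extracellular solution against tefluthrin (10 μM)-enhanced late current. Automated patch clamp (23-25° C) on HEK293 expressing alpha subunit alone: −120 mV holding, 250 ms depolarization to −20 mV every 10 s. Read-out is percent inhibition of mean current over 225–250 ms.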

[2] = Microsomal stability assay, rat; type: in vitro ADME; details: metabolic stability, rat liver microsomes 0.5 mg/mL, substrate 3 uM
Protocol: (§1) The micorsomal stability assay is generally performed as follows. Format: 15 compounds (and 1 control verapamil) in 3 different species in duplicate sets Substrate: 3 uM Protein concentration: 0.5 mg/mL (for dog, rat, and human liver microsomes) Cofactor: 1×NADPH-Regenerating system Time-points: 2, 12, 25, 45, and 65 minutes [table] Sample preparation: 25 uL at each timepoint is added to plate with 225 uL quenching solution (50% MeOH, 25% ACN, 25% H2O, and 50 nM […]). After plates are vortexed, centrifuge for 30 minutes. Microsomal solutions: take 400 uL of 20 mg/mL microsomes and add to 13,680 uL 100 mM KPO4 buffer. Using an 8-channel, add 650 uL of this solution to the designated two columns on a short plate. The order should be dog microsomes in columns 1 and 2, rat microsomes in columns 3 and 4, and human microsomes in columns 5 and 6. Keep on ice before use. Place this plate in incubator 1 on the TECAN countertop.

[3] = Microsomal stability assay, dog; type: in vitro ADME; details: metabolic stability, dog liver microsomes 0.5 mg/mL, substrate 3 uM
Protocol: as §1

[4] = Microsomal stability assay, human; type: in vitro ADME; details: metabolic stability, human liver microsomes 0.5 mg/mL, substrate 3 uM
Protocol: as §1

Chain of wild-type human cardiac sodium channel, hNav1.5 (late INa) (Q14524 whole entry): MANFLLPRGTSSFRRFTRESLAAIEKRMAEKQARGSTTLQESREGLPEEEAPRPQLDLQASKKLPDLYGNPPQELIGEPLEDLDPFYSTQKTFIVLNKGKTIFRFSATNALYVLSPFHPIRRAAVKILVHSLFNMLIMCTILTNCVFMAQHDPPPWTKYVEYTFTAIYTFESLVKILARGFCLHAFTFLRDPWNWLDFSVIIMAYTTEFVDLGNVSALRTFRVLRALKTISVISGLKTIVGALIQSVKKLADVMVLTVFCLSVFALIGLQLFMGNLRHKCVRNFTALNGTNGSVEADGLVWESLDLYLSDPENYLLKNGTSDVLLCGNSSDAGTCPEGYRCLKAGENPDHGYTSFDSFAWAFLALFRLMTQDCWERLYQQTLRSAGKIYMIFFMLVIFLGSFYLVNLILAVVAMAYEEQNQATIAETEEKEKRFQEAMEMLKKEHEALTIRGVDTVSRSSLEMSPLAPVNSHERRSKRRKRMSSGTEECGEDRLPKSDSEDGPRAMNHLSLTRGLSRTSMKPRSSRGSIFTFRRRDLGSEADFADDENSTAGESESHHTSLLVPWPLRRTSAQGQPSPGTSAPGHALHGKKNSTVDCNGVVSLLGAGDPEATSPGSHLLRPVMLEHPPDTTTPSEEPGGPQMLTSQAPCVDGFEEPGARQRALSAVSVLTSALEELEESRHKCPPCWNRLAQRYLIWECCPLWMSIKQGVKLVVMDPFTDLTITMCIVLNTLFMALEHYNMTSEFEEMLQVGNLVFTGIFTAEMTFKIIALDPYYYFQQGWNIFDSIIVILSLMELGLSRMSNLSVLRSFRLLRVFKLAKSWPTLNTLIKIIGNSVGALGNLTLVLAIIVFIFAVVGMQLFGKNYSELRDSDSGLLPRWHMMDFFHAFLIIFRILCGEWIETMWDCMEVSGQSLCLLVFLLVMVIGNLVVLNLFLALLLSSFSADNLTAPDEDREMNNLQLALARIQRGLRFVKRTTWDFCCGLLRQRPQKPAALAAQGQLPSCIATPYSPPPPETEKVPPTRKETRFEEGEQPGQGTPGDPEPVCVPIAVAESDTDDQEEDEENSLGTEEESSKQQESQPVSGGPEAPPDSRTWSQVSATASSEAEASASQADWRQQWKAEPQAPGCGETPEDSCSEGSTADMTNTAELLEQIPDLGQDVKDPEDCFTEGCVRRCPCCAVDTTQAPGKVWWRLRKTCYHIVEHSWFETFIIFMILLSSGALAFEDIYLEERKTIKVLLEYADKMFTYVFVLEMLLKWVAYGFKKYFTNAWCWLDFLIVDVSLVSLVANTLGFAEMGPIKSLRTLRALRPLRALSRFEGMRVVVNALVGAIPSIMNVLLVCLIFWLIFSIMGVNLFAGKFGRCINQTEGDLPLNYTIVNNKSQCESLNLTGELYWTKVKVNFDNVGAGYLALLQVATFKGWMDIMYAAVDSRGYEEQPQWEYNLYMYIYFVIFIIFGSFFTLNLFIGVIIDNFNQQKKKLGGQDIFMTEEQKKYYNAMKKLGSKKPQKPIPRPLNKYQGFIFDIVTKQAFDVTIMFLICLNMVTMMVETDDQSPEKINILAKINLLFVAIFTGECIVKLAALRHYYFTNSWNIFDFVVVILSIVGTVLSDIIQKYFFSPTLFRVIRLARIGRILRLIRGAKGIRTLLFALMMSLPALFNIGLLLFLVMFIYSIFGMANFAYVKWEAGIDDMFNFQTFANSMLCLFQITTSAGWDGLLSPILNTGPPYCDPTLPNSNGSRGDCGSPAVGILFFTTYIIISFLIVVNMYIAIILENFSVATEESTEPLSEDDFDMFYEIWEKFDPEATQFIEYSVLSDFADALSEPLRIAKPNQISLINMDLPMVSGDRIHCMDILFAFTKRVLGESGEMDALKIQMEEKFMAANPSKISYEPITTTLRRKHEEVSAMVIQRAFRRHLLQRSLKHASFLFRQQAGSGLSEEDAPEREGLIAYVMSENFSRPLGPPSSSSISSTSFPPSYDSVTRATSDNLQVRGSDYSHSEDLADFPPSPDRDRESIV

Row | MS Rat THalf [2] | MS Dog THalf [3] | MS Human THalf [4] | Compound | inhibition at 1 µM [1]
1 | 104 min | 122 min | > 395 min | Cc1nc(Cn2ncc3ccc(-c4ccc(OC(F)(F)F)cc4)cc3c2=O)no1 [III-3, 2-((5-methyl-1,2,4-oxadiazol-3-yl)methyl)-7-(4-(trifluoromethoxy)phenyl)phthalazin-1(2H)-one] | 42%
2 | 106 min | 88 min | 65 min | O=C1c2cc(-c3ccc(OC(F)(F)F)cc3)ccc2CCN1Cc1ccccn1 [IX-2, 2-(pyridin-2-ylmethyl)-7-(4-(trifluoromethoxy)phenyl)-3,4-dihydroisoquinolin-1(2H)-one] | 40%
3 | 49 min | 159 min | 165 min | N#CC1(c2ccc(-c3ccc4nnn(CCOc5ncccn5)c(=O)c4c3)cc2)CC1 [II-50, 1-(4-(4-oxo-3-(2-(pyrimidin-2-yloxy)ethyl)-3,4-dihydrobenzo[d][1,2,3]triazin-6-yl)phenyl)cyclopropanecarbonitrile] | 30%
4 | 144 min | 123 min | 164 min | Cc1nc(Cn2nnc3ccc(-c4ccc(OC(F)(F)F)cc4)cc3c2=O)no1 [II-6, 3-((5-methyl-1,2,4-oxadiazol-3-yl)methyl)-6-(4-(trifluoromethoxy)phenyl)benzo[d][1,2,3]triazin-4(3H)-one] | 43%

Source: patent US20150329558A1, “FUSED HETEROCYCLIC COMPOUNDS AS ION CHANNEL MODULATORS” (Gilead Sciences, Inc., priority 2011, published 2015)
